Patent US5814612A, “Retinol derivatives and uses thereof” (priority 1992, dated 1998)
Entries after “also recorded” stand apart in the source; their conditions may differ. Like-named read-outs stand apart in the source and are kept apart here.

Tests used:
[1] = Stability of retinoids in serum-free tissue culture medium; format: in vitro ADME
B lymphocytes = test: Activity in B lymphocytes; format: cell-based
SKL3 = test: Retinol metabolism, SKL3; format: in vitro ADME, human
Description: (§1) Legend: 2.5×10^6 cells were grown overnight in 5 ml RPMI/10% FBS. The FBS was preincubated at room temperature with 14.4 uCi [^3 H] retinol (NEN) for 4h. The cell pellet was washed twice with PBS. The retinoid were extracted according to MClean et al. 90 and separated on an analytical c18 reverse phase column according to FIG. 7. The DPM were determined using an on-line scintillation counter.

SK--N--SH = test: Retinol metabolism, SK--N--SH; format: in vitro ADME, human
Description: as §1

SK3886 = test: Retinol metabolism, SK3886; format: in vitro ADME
Description: as §1

5/2 = test: Retinol metabolism, 5/2; format: in vitro ADME, human
Description: as §1

RPMI = test: Retinol metabolism, RPMI (Leukemia ALL); format: in vitro ADME
Description: as §1

N-tera2 = test: Retinol metabolism, N-tera2; format: in vitro ADME, human
Description: as §1

26 mammalian cells = test: 3H retinol conversion to P3/14HRR in 26 mammalian cells; format: in vitro ADME; conditions: retinol bound to fetal calf serum
Description: The use of ^3 H retinol bound to fetal calf serum was used as an assay to test for P3 in other cell lines.
The use of ^3 H retinol bound to fetal calf serum was used as an assay to test for 14HRR in other cell lines.
as §1

thymocytes [2] = test: Proliferation of Con A stimulated thymocytes in serum-free ITLB medium; format: cell-based, BALB/c mouse; conditions: 3×10^-6 M retinol, Con A 0.5 μg/ml
Description: Purified thymocytes (5×10^5 cells/well) were stimulated by TCR crosslinking with immobilized anti-CD3e antibody (FIG. 15A) or 0.4 μg/ml Con A (FIG. 15B) in serum-free ITLB medium. The indicated amounts of retinoids were added either once at the beginning of the experiment (marked as "1×") or every 12 hours thereafter (marked as "6×"). DNA synthesis was measured after 72 hours by tritiated thymidine uptake as described.
Thymuses of 3 to 6-week-old BALB/c mice were teased in serum-free RPMI medium supplemented with 1% BSA, 10^-6 M linoleic acid and antibiotics. […] Cell viability was evaluated by trypan blue dye exclusion. To determine the extent of depletion of accessory cells, samples were stained with FITC-conjugated anti-Fc receptor antibody and analyzed by flow cytometry on a FACScan instrument (Becton Dickinson). No FcR-bearing cells were detected by this procedure.
Cells were cultured in serum-free medium, referred to as ITLB, containing RPMI 1640 supplemented with 8×10^-7 M insulin (5 μg/ml), 7×10^-8 M transferrin (5 μg/ml), 2×10^-6 M linoleic acid, 2×10^-6 M delipidated BSA (0.12 mg/ml), 2 mM L-glutamine, 1 mM sodium pyruvate and antibiotics. […] The optimal concentration for stimulation of T cells was determined for each batch of anti-CD3 mAb and Con A. The optimal range of Con A was particularly narrow in serum-free medium (0.5-0.2 μg/ml) and varied with the cell density used. […]

thymocytes [3] = test: Viable and blast cell counts of thymocytes (trypan blue); format: cell-based, BALB/c mouse
Description: FIG. 14C: BALB/c thymocytes (3×10^6 /ml) were activated with anti-CD3e mAb as FIG. 1A. The total number of viable cells was determined by counting trypan blue-excluding cells, and those of blast cells by counting viable large cells in six replicate wells. Because of the relatively low cell density required in the culture (see FIG. 14A), the numbers reported for blast cells are best estimates.
Thymuses of 3 to 6-week-old BALB/c mice were teased in serum-free RPMI medium supplemented with 1% BSA, 10^-6 M linoleic acid and antibiotics. Depletion of accessory cells was achieved by two cycles of complement-dependent lysis with a mixture of anti-IA^d (5 μg/ml) and anti-IE^d (1:500 diluted ascites fluid). Briefly, cells were incubated on ice for 30 minutes with Ia antibodies, spun down, resuspended in 1:40 diluted rabbit complement, and incubated at 37° C. for 45 minutes. Incubations and two subsequent washes were carried out with RPMI medium containing 1% BSA. Cell viability was evaluated by trypan blue dye exclusion. To determine the extent of depletion of accessory cells, samples were stained with FITC-conjugated anti-Fc receptor antibody and analyzed by flow cytometry on a FACScan instrument (Becton Dickinson). No FcR-bearing cells were detected by this procedure.

P388D.1 = test: Retinol metabolism, P388D.1; format: in vitro ADME, mouse
Description: as §1

EL-4 = test: Retinol metabolism, EL-4; format: in vitro ADME, mouse
Description: as §1

**Q.** With `CC(C=CC=C(C)C(O)CO)=CC=C1C(C)=CCCC1(C)C` (stereo not drawn) [14HRR, 14-hydroxy-4,14-retro-retinol] as the compound, how does the half-life [1] read?
**A.** Its half-life is ~4 h.

**Q.** And the half-life ([1]; tissue culture medium, data not shown)?
**A.** Its half-life is 4 h.

**Q.** And the “activity relative to all-trans retinol on a concentration basis” value (B lymphocytes; B cells)?
**A.** The value was 10-30 fold.

**Q.** And the “potency relative to retinol in preventing necrotic cell death” value (B lymphocytes; concentration basis)?
**A.** Its value is 20-40 times.

**Q.** Which “Ester (% of taken up retinol)” value (SKL3) does the source give for `CC1=C(/C=C/C(C)=C/C=C/C(C)=C/CO)C(C)(C)CCC1` [retinol, all-trans retinol] here?
**A.** Its value is 24%.

**Q.** What about the “P3 (% of taken up retinol)” value (SKL3) of the same compound?
**A.** Its value is 2%.

**Q.** What about the Total cts. (SKL3) of the same compound?
**A.** The Total cts. was 1.6 × 10^5 cts.

**Q.** And the “Ester (% of taken up retinol)” value (SK--N--SH)?
**A.** Its value is 25%.

**Q.** What about the “P3 (% of taken up retinol)” value (SK--N--SH) of the same compound?
**A.** Its value is 0.9%.

**Q.** And the “Retinol (% of taken up retinol)” value (SK--N--SH)?
**A.** Its value is 56%.

**Q.** What about the Total cts. (SK--N--SH) of the same compound?
**A.** Its Total cts. is 2.0 × 10^5 cts.

**Q.** And the “Ester (% of taken up retinol)” value (SK3886)?
**A.** The value was 2%.

**Q.** And the “P3 (% of taken up retinol)” value (SK3886)?
**A.** Its value is 3%.

**Q.** What about the Total cts. (SK3886) of the same compound?
**A.** The Total cts. was 4.7 × 10^5 cts.

**Q.** What about the “Ester (% of taken up retinol)” value (5/2) of the same compound?
**A.** Its value is 24%.

**Q.** And the “P3 (% of taken up retinol)” value (5/2)?
**A.** The value was 4%.

**Q.** What about the Total cts. (5/2) of the same compound?
**A.** The Total cts. was 5.7 × 10^5 cts.

**Q.** What about the “Ester (% of taken up retinol)” value (RPMI) of the same compound?
**A.** Its value is 38%.

**Q.** What about the “P3 (% of taken up retinol)” value (RPMI) of the same compound?
**A.** The value was 2%.

**Q.** And the Total cts. (RPMI)?
**A.** Its Total cts. is 1.2 × 10^5 cts.

**Q.** What about the “Ester (% of taken up retinol)” value (N-tera2) of the same compound?
**A.** The value was 97%.

**Q.** What about the “P3 (% of taken up retinol)” value (N-tera2) of the same compound?
**A.** The value was 0.4%.

**Q.** And the Total cts. (N-tera2)?
**A.** Its Total cts. is 13.5 × 10^5 cts.

**Q.** What about the “formation of P3/14HRR from 3H retinol” value (26 mammalian cells) of the same compound?
**A.** The value was “radioactivity peak at the position where 14HRR normally elutes; also recorded: radioactivity peak at the position where P3 normally elutes”.

**Q.** And the “Con A stimulated thymocyte proliferation” value (thymocytes [2])?
**A.** Its value is “growing exponentially”.

**Q.** And the “T cell activation / blast transformation by agent alone” value (thymocytes [3]; alone)?
**A.** The value was “no discernible T cell activation”.

**Q.** And the “viability of thymocyte cultures” value (thymocytes [3]; retinol by itself)?
**A.** Its value is “maintain a higher state of viability than anti-CD3e "only" stimulation”.

**Q.** What about the “Ester (% of taken up retinol)” value (P388D.1) of the same compound?
**A.** Its value is 26%.

**Q.** What about the “P3 (% of taken up retinol)” value (P388D.1) of the same compound?
**A.** The value was 0.5%.

**Q.** What about the Total cts. (P388D.1) of the same compound?
**A.** The Total cts. was 1.4 × 10^5 cts.

**Q.** And the “Ester (% of taken up retinol)” value (EL-4)?
**A.** The value was 44%.

**Q.** And the “P3 (% of taken up retinol)” value (EL-4)?
**A.** Its value is 5%.

**Q.** What about the Total cts. (EL-4) of the same compound?
**A.** Its Total cts. is 2.8 × 10^5 cts.
